The target in test [1] is T1, human progesterone receptor A (Homo sapiens, UniProt P06401).
T1 construct: expressed in transfected cells; host or cells: SK-N-MC human neuroblastoma cells, stably transfected with pRChPR-A-neo and pMMTV-LUC
T1 sequence (P06401 1-769 isoform P06401-2): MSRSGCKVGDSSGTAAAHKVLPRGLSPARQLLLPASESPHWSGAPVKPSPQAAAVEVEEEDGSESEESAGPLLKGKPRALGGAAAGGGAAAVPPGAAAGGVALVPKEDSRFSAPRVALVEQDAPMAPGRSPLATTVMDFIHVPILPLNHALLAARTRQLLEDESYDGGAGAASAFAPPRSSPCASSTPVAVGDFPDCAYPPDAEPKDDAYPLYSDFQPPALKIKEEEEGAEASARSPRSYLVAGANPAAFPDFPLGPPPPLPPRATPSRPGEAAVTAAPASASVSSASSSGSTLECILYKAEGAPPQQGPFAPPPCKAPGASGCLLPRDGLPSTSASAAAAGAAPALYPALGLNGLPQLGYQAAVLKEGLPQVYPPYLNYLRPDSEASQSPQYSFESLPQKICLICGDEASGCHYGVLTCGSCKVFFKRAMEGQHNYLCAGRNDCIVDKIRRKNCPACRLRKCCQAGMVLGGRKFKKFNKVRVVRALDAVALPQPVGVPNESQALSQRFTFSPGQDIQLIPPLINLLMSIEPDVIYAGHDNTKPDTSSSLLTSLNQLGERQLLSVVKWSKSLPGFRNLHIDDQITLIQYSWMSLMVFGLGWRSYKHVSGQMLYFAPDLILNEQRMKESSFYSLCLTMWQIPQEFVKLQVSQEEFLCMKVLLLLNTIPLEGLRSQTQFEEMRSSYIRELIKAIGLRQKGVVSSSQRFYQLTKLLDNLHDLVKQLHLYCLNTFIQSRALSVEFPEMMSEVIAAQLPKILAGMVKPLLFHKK
Kind of test: Progesterone receptor antagonistic effect in stably transfected SK-N-MC cells, MTV-LUC reporter (PR-A). Conditions: antagonism of 0.1 nmol/l promegestone, luciferase reporter, 24 hours. Format: cell-based. The procedure:
(§1) Progesterone Receptor Antagonistic Effect in Stable Transfectants of Human Neuroblastoma Cells (SK-N-MC cells) with the Human Progesterone A or Progesterone B Receptor and a MTV-LUC Reporter Construct
(§2) SK-N-MC cells (human neuroblastoma cells), which have been stably transfected with plasmids which express the human progesterone receptor B (pRChPR-B-neo) or the human progesterone receptor A (pRChPR-A-neo) and a reporter construct (pMMTV-LUC), were incubated for 24 hours either in the absence (negative control) or in the presence of increasing amounts of the particular test compound (0.01 nmol/l, 0.1 nmol/l, 1 nmol/l, 10 nmol/l, 100 nmol/l and 1 μmol/l) in order to determine the agonistic efficacy. As a positive control of the reporter gene induction, the cells were treated with the synthetic gestagen promegestone (0.01 nmol/l, 0.1 nmol/l, 1 nmol/l, 10 nmol/l, 100 nmol/l and 1 μmol/l). To determine the antagonistic activity, the cells were treated with 0.1 nmol/l of promegestone and additionally with increasing amounts of the particular test compound (0.01 nmol/l, 0.1 nmol/l, 1 nmol/l, 10 nmol/l, 100 nmol/l and 1 μmol/l). The activity of the reporter gene LUC (LUC=luciferase) was determined in the cell lysates and measured as RLU (relative light units). All measurement values are given as percentage efficacy and as EC50 or IC50 concentrations.

Test [2] concerns the target T2, human progesterone receptor B (Homo sapiens, UniProt P06401).
T2 construct: expressed in transfected cells; host or cells: SK-N-MC human neuroblastoma cells, stably transfected with pRChPR-B-neo and pMMTV-LUC
T2 sequence (P06401 1-933): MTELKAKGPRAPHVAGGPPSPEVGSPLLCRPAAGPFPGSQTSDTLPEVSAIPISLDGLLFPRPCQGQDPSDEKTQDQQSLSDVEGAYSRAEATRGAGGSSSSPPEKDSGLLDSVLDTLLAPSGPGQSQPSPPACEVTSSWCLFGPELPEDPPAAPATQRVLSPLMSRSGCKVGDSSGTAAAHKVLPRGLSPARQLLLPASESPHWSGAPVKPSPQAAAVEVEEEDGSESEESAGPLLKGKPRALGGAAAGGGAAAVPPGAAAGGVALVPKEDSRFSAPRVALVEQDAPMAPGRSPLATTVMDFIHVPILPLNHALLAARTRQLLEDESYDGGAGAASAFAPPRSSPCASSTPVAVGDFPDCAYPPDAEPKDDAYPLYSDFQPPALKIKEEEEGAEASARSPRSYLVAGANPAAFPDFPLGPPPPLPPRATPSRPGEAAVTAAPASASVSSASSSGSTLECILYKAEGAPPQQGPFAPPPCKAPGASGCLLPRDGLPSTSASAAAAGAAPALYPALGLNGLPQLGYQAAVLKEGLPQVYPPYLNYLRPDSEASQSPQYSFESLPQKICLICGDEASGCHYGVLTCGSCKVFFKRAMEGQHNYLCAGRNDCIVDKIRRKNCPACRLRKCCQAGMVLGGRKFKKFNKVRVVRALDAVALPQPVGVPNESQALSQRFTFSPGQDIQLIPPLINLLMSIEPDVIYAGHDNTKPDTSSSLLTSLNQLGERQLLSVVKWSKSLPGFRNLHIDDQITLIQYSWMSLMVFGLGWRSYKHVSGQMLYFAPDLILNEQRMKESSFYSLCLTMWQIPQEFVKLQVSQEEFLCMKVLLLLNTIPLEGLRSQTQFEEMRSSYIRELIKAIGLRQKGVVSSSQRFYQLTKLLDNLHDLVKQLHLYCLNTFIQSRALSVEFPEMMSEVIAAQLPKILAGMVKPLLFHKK
The test is described as follows: Progesterone receptor antagonistic effect in stably transfected SK-N-MC cells, MTV-LUC reporter (PR-B). Format: cell-based. Particulars: antagonism of 0.1 nmol/l promegestone, luciferase reporter, 24 hours. As to the method:
as §1, §2
On the technique in general: In a reporter assay the amount or activity of a reporter protein is the signal.

One may read the IC50 as the concentration that gives 50% inhibition. Low values mean greater potency in that assay, high ones weaker potency in that assay.

For `CN(C)Cc1ccc([C@H]2C[C@@]3(C)C(CC[C@@]3(O)C(F)(F)C(F)(F)F)C3CCC4=CC(=O)CCC4=C32)cc1` (stereo partly drawn) [Example 1, (11β,17β)-11-{4-[(Dimethylamino)methyl]phenyl}-17-hydroxy-17-(pentafluoroethyl)estra-4,9-dien-3-one], the results for the IC50 in test [1] and in test [2] were 7.5 nM and 8.2 nM, respectively.

`CC(C)(C)OC(=O)N1CCN(Cc2ccc([C@H]3C[C@@]4(C)[C@@H](CC[C@@]4(O)C(F)(F)C(F)(F)F)[C@@H]4CCC5=CC(=O)CCC5=C43)cc2)CC1` [Example 3, tert-Butyl 4-{4-[(11β,17β)-17-hydroxy-3-oxo-17-(pentafluoroethyl)estra-4,9-dien-11-yl]benzyl}piperazine-1-carboxylate]: the values for the IC50 in test [1] and in test [2] were 0.11 nM and 0.15 nM, respectively.

`C[C@]12C[C@H](c3ccc(CN4CCCCC4)cc3)C3=C4CCC(=O)C=C4CC[C@H]3[C@@H]1CC[C@@]2(O)C(F)(F)C(F)(F)F` [Example 4, (11β,17β)-17-Hydroxy-17-(pentafluoroethyl)-11-[4-(piperidin-1-ylmethyl)phenyl]estra-4,9-dien-3-one]: the IC50 in test [1] came out at 1.4 nM; in test [2] it was 2.1 nM.

In the case of `COC(=O)C1CCN(Cc2ccc([C@H]3C[C@@]4(C)[C@@H](CC[C@@]4(O)C(F)(F)C(F)(F)F)[C@@H]4CCC5=CC(=O)CCC5=C43)cc2)CC1` [Example 5, Methyl 1-{4-[(11β,17β)-17-hydroxy-3-oxo-17-(pentafluoroethyl)estra-4,9-dien-11-yl]benzyl}piperidine-4-carboxylate], the IC50 in test [1] worked out at 1.2 nM; in test [2], 0.99 nM.

On to `CC(C)(C)OC(=O)N1CCCN(Cc2ccc([C@H]3C[C@@]4(C)[C@@H](CC[C@@]4(O)C(F)(F)C(F)(F)F)[C@@H]4CCC5=CC(=O)CCC5=C43)cc2)CC1` [Example 6, tert-Butyl 4-{4-[(11β,17β)-17-hydroxy-3-oxo-17-(pentafluoroethyl)estra-4,9-dien-11-yl]benzyl}-1,4-diazepane-1-carboxylate], for which the IC50 in test [1] amounted to 0.33 nM; in test [2], 0.3 nM.

Take `C[C@]12C[C@H](c3ccc(CN4CCOCC4)cc3)C3=C4CCC(=O)C=C4CC[C@H]3[C@@H]1CC[C@@]2(O)C(F)(F)C(F)(F)F` [Example 7, (11β,17β)-17-Hydroxy-11-[4-(morpholin-4-ylmethyl)phenyl]-17-(pentafluoroethyl)estra-4,9-dien-3-one]: the IC50 in test [1] and in test [2] was 0.1 nM throughout.

For the molecule `C[C@]12C[C@H](c3ccc(CN4CCS(=O)(=O)CC4)cc3)C3=C4CCC(=O)C=C4CCC3C1CC[C@@]2(O)C(F)(F)C(F)(F)F` (stereo partly drawn) [Example 8, (11β,17β)-11-{4-[(1,1-Dioxidothiomorpholin-4-yl)methyl]phenyl}-17-hydroxy-17-(pentafluoroethyl)estra-4,9-dien-3-one], the IC50 in test [1] is 0.1 nM; in test [2], 0.3 nM.

In the case of `C[C@]12C[C@H](c3ccc(CNCCc4ccccc4)cc3)C3=C4CCC(=O)C=C4CC[C@H]3[C@@H]1CC[C@@]2(O)C(F)(F)C(F)(F)F` [Example 9, (11β,17β)-17-Hydroxy-17-(pentafluoroethyl)-11-(4-{[(2-phenylethyl)amino]methyl}phenyl)estra-4,9-dien-3-one], the IC50 in test [1] is 1.3 nM; in test [2] it was 0.98 nM.

With `C[C@]12C[C@H](c3ccc(CN4CCNCC4)cc3)C3=C4CCC(=O)C=C4CC[C@H]3[C@@H]1CC[C@@]2(O)C(F)(F)C(F)(F)F` [Example 10, (11β,17β)-17-Hydroxy-17-(pentafluoroethyl)-11-[4-(piperazin-1-yl-methyl)phenyl]estra-4,9-dien-3-one], the IC50 in test [1] was found to be 0.88 nM; in test [2] it was 0.12 nM.

`C[C@]12C[C@H](c3ccc(CN4CCN(C(=O)c5ccccc5)CC4)cc3)C3=C4CCC(=O)C=C4CCC3C1CC[C@@]2(O)C(F)(F)C(F)(F)F` (stereo partly drawn) [Example 13, (11β,17β)-11-{4-[(4-Benzoylpiperazin-1-yl)methyl]phenyl}-17-hydroxy-17-(Pentafluoroethyl)estra-4,9-dien-3-one]: the IC50 in test [1] is 0.092 nM; in test [2], 0.1 nM.

Regarding `CC(C)(C)C(=O)N1CCN(Cc2ccc([C@H]3C[C@@]4(C)C(CC[C@@]4(O)C(F)(F)C(F)(F)F)C4CCC5=CC(=O)CCC5=C43)cc2)CC1` (stereo partly drawn) [Example 14, (11β,17β)-11-(4-{[4-(2,2-Dimethylpropanoyl)piperazin-1-yl]methyl}phenyl)-17-hydroxy-17-(pentafluoroethyl)estra-4,9-dien-3-one], the values for the IC50 in test [1] and in test [2] were 0.1 nM and 0.094 nM, respectively.

For `C[C@]12C[C@H](c3ccc(CN4CCC(C(=O)O)CC4)cc3)C3=C4CCC(=O)C=C4CC[C@H]3[C@@H]1CC[C@@]2(O)C(F)(F)C(F)(F)F` [Example 15, 1-{4-[(11β,17β)-17-hydroxy-3-oxo-17-(pentafluoroethyl)estra-4,9-dien-11-yl]benzyl}piperidine-4-carboxylic acid], the IC50 in test [1] was 53 nM; in test [2], 60 nM.

`C[C@]12C[C@H](c3ccc(CN4CCCNCC4)cc3)C3=C4CCC(=O)C=C4CCC3C1CC[C@@]2(O)C(F)(F)C(F)(F)F` (stereo partly drawn) [Example 16, (11β,17β)-11-[4-(1,4-Diazepan-1-ylmethyl)phenyl]-17-hydroxy-17-(pentafluoroethyl)estra-4,9-dien-3-one]: the values for the IC50 in test [1] and in test [2] were 2.7 nM and 2.8 nM, respectively.

For the molecule `CC(=O)N1CCCN(Cc2ccc([C@H]3C[C@@]4(C)C(CC[C@@]4(O)C(F)(F)C(F)(F)F)C4CCC5=CC(=O)CCC5=C43)cc2)CC1` (stereo partly drawn) [Example 17, (11β,17β)-11-{4-[(4-Acetyl-1,4-diazepan-1-yl)methyl]phenyl}-17-hydroxy-17-(pentafluoroethyl)estra-4,9-dien-3-one], the values for the IC50 in test [1] and in test [2] were 0.56 nM and 0.57 nM, respectively.

Source of the values: patent US9085603B2, “Progesterone receptor antagonists” (Bayer Intellectual Property GmbH, priority 2010, dated 2015).
